The values that follow come from patent US20040019430A1, “Methods and systems for analyzing complex biological systems” (priority 2001, published 2004).

Test [1] relates to Arabidopsis thaliana plants. As to the kind of experiment: SOA1 phenotypic analysis of herbicide-treated Arabidopsis plants (MIC, Tmic, leaf traits). In kind it is in vivo. The conditions noted are these: for Dev. leafCurling / Dev. leafTwisting / Dev. matureLeafAnthocyanins / Dev. matureLeafChlorosis / Dev. matureLeafNecrosis / Dev. newLeafAnthocyanins / Dev. newLeafChlorosis / Dev. newLeafNecrosis / Dev. pointedLeaves: numeric value standardized to mock treated; for Dev. leafWidth: numeric value standardized to the average response for the mock treated tissues; for Symptom Class: three-week-old Arabidopsis plants treated with herbicide, phenotype classes of FIG. 12; for Characteristic symptoms (phenotype): herbicide treated Arabidopsis.

Test [2] relates to Arabidopsis thaliana. Briefly: MOA1 biochemical (metabolite) profiling by LC-MS and GC-MS. The settings on record: relative to control, early time points.
In test [3] the test system is N-starved Arabidopsis plants. The conditions noted are these: nitrate addition to N-starved Arabidopsis; cited from earlier work.

Entries after “also recorded” stand apart in the source; their conditions may differ.

Regarding `O=C(O)COc1ccc(Cl)cc1Cl` [2,4-D], in test [1], the “Dev. tMic” value is reported as 2, the “Dev. leafCurling” value amounted to 1, the “Dev. leafTwisting” value is listed as 2 and the “Dev. matureLeafAnthocyanins” value is 1. Besides, in test [1], the “Dev. matureLeafChlorosis” value is 2, the “Dev. matureLeafNecrosis” value is listed as 0, the “Dev. newLeafAnthocyanins” value was found to be 0 and the “Dev. newLeafChlorosis” value worked out at 1. For the same compound, in test [1], the “Dev. newLeafNecrosis” value was found to be 0, the “Dev. pointedLeaves” value is listed as 0, the “Dev. leafWidth” value is −1 and the “Symptom Class” value is reported as 5.
`O=C(O)c1cc(Oc2ccc(C(F)(F)F)cc2Cl)ccc1[N+](=O)[O-]` [Acifluorfen]: in test [1], the “Dev. tMic” value is given as 1, the “Characteristic symptoms (phenotype)” value was “Necrotic leaf flecks”, the “Dev. leafCurling” value turned out to be 1 and the “Dev. leafTwisting” value amounted to 0. Also, in test [1], the “Dev. matureLeafAnthocyanins” value is listed as 0, the “Dev. matureLeafChlorosis” value is 0, the “Dev. matureLeafNecrosis” value worked out at 1 and the “Dev. newLeafAnthocyanins” value stood at 0. Moreover, in test [1], the “Dev. newLeafChlorosis” value came out at 0, the “Dev. newLeafNecrosis” value is listed as 3, the “Dev. pointedLeaves” value is on record as 0 and the “Dev. leafWidth” value is given as 0.
Turning to `CCNc1nc(Cl)nc(NC(C)C)n1` [Atrazine], in test [1], the “Dev. tMic” value is on record as 1; the “Characteristic symptoms (phenotype)” value was “rapid and widespread leaf necrosis”; the “Dev. leafCurling” value turned out to be 1; the “Dev. leafTwisting” value worked out at 0. For the same compound, in test [1], the “Dev. matureLeafAnthocyanins” value amounted to 0, the “Dev. matureLeafChlorosis” value was 1, the “Dev. matureLeafNecrosis” value is given as 4 and the “Dev. newLeafAnthocyanins” value amounted to 0. In addition, in test [1], the “Dev. newLeafChlorosis” value is 1, the “Dev. newLeafNecrosis” value is 4, the “Dev. pointedLeaves” value is recorded as 1 and the “Dev. leafWidth” value is given as −1.
Regarding `O=C(O)Cn1c(=O)sc2cccc(Cl)c21` [Benazolin], in test [1], the “Dev. tMic” value is recorded as 2, the “Dev. leafCurling” value is 2, the “Dev. leafTwisting” value stood at 2 and the “Dev. matureLeafAnthocyanins” value was 0. In test [1], the “Dev. matureLeafChlorosis” value worked out at 0, the “Dev. matureLeafNecrosis” value was 0, the “Dev. newLeafAnthocyanins” value was determined as 0 and the “Dev. newLeafChlorosis” value amounted to 0. In test [1], the “Dev. newLeafNecrosis” value was 0, the “Dev. pointedLeaves” value stood at 0 and the “Dev. leafWidth” value is reported as −2.
In the case of `CC(C)N1C(=O)c2ccccc2NS1(=O)=O` [Bentazon], in test [1], the “Dev. tMic” value worked out at 1; the “Characteristic symptoms (phenotype)” value is “rapid and widespread leaf necrosis”; the “Dev. leafCurling” value is reported as 2; the “Dev. leafTwisting” value was determined as 0. Besides, in test [1], the “Dev. matureLeafAnthocyanins” value is listed as 0, the “Dev. matureLeafChlorosis” value came out at 2, the “Dev. matureLeafNecrosis” value is 4 and the “Dev. newLeafAnthocyanins” value came out at 0. In test [1], the “Dev. newLeafChlorosis” value stood at 2, the “Dev. newLeafNecrosis” value was 4, the “Dev. pointedLeaves” value amounted to 1 and the “Dev. leafWidth” value is −2.
Consider `COC(=O)c1cc(Oc2ccc(Cl)cc2Cl)ccc1[N+](=O)[O-]` [Bifenox], for which, in test [1], the “Dev. tMic” value came out at 1, the “Characteristic symptoms (phenotype)” value is listed as “Necrotic leaf flecks”, the “Dev. leafCurling” value is 1 and the “Dev. leafTwisting” value is reported as 0. Besides, in test [1], the “Dev. matureLeafAnthocyanins” value is 0, the “Dev. matureLeafChlorosis” value was determined as 0, the “Dev. matureLeafNecrosis” value is reported as 1 and the “Dev. newLeafAnthocyanins” value is on record as 0. Moreover, in test [1], the “Dev. newLeafChlorosis” value is listed as 0, the “Dev. newLeafNecrosis” value came to 3, the “Dev. pointedLeaves” value was found to be 0 and the “Dev. leafWidth” value turned out to be 0.
Take `COc1nc(C)nc(NC(=O)NS(=O)(=O)c2ccccc2Cl)n1` [Chlorsulfuron]: in test [1], the “Dev. tMic” value is 2, the “Characteristic symptoms (phenotype)” value was “anthocyanin accumulation in the older leaves accompanied by chlorosis of the newly emerging leaves”, the “Dev. leafCurling” value came to 1 and the “Dev. leafTwisting” value amounted to 1. For the same compound, in test [1], the “Dev. matureLeafAnthocyanins” value was 3, the “Dev. matureLeafChlorosis” value turned out to be 2, the “Dev. matureLeafNecrosis” value was determined as 0 and the “Dev. newLeafAnthocyanins” value is 0. In test [1], the “Dev. newLeafChlorosis” value is 2, the “Dev. newLeafNecrosis” value came to 0, the “Dev. pointedLeaves” value is 0 and the “Dev. leafWidth” value was −1.
For the compound `COc1c(Cl)ccc(Cl)c1C(=O)O` [Dicamba], in test [1], the “Dev. tMic” value was 2, the “Dev. leafCurling” value worked out at 2, the “Dev. leafTwisting” value amounted to 2 and the “Dev. matureLeafAnthocyanins” value was determined as 0. For the same compound, in test [1], the “Dev. matureLeafChlorosis” value came to 2, the “Dev. matureLeafNecrosis” value is listed as 0, the “Dev. newLeafAnthocyanins” value was determined as 0 and the “Dev. newLeafChlorosis” value is on record as 0. In addition, in test [1], the “Dev. newLeafNecrosis” value is listed as 0, the “Dev. pointedLeaves” value came out at 0 and the “Dev. leafWidth” value is on record as −2.
As to `c1cc[n+]2c(c1)-c1cccc[n+]1CC2` [Diquat], in test [1], the “Dev. tMic” value turned out to be 2; the “Characteristic symptoms (phenotype)” value is “rapid and widespread leaf necrosis”; the “Dev. leafCurling” value was determined as 2; the “Dev. leafTwisting” value stood at 0. In addition, in test [1], the “Dev. matureLeafAnthocyanins” value is reported as 0, the “Dev. matureLeafChlorosis” value is listed as 1, the “Dev. matureLeafNecrosis” value amounted to 4 and the “Dev. newLeafAnthocyanins” value stood at 0. In addition, in test [1], the “Dev. newLeafChlorosis” value came to 1, the “Dev. newLeafNecrosis” value is 4, the “Dev. pointedLeaves” value turned out to be 1 and the “Dev. leafWidth” value is recorded as −2. In addition, the “Symptom Class” value in test [1] was 7.
`CN(C)C(=O)Nc1ccc(Cl)c(Cl)c1` [Diuron]: in test [1], the “Dev. tMic” value came out at 1; the “Characteristic symptoms (phenotype)” value is “rapid and widespread leaf necrosis”; the “Dev. leafCurling” value is listed as 1; the “Dev. leafTwisting” value was 0. Besides, in test [1], the “Dev. matureLeafAnthocyanins” value was 0, the “Dev. matureLeafChlorosis” value amounted to 2, the “Dev. matureLeafNecrosis” value worked out at 4 and the “Dev. newLeafAnthocyanins” value amounted to 0. In test [1], the “Dev. newLeafChlorosis” value is given as 2, the “Dev. newLeafNecrosis” value was found to be 4, the “Dev. pointedLeaves” value amounted to 1 and the “Dev. leafWidth” value was −2. Further, the “Symptom Class” value in test [1] came out at 7.
For `CCc1cnc(C2=NC(C)(C(C)C)C(=O)N2)c(C(=O)O)c1` (centres unmarked) [Imazethapyr], in test [1], the “Dev. tMic” value worked out at 2, the “Characteristic symptoms (phenotype)” value is “anthocyanin accumulation in the older leaves accompanied by chlorosis of the newly emerging leaves”, the “Dev. leafCurling” value was 1 and the “Dev. leafTwisting” value came out at 1. In test [1], the “Dev. matureLeafAnthocyanins” value is recorded as 3, the “Dev. matureLeafChlorosis” value was determined as 0, the “Dev. matureLeafNecrosis” value came out at 0 and the “Dev. newLeafAnthocyanins” value was found to be 0. Further, in test [1], the “Dev. newLeafChlorosis” value is 2, the “Dev. newLeafNecrosis” value was found to be 0, the “Dev. pointedLeaves” value amounted to 0 and the “Dev. leafWidth” value is 0.
As to `CS(=O)(=O)c1cc(C(F)(F)F)ccc1C(=O)c1cnoc1C1CC1` [Isoxaflutole], the Alpha-tocopherol levels entry in test [2] is “not significantly changed relative to the control”. Moreover, the “Tyrosine and phenylalanine levels” value in test [2] (1 hr) was “up-regulated relative to the control; also recorded: began to accumulate relative to the control after one hour”.
On to `CCc1cccc(C)c1N(C(=O)CCl)C(C)COC` (centres unmarked) [Metolachlor], for which, in test [1], the “Dev. tMic” value came to 2, the “Dev. leafCurling” value came out at 2, the “Dev. leafTwisting” value was 1 and the “Dev. matureLeafAnthocyanins” value was found to be 0. Further, in test [1], the “Dev. matureLeafChlorosis” value is 0, the “Dev. matureLeafNecrosis” value was determined as 3, the “Dev. newLeafAnthocyanins” value amounted to 0 and the “Dev. newLeafChlorosis” value is listed as 0. Moreover, in test [1], the “Dev. newLeafNecrosis” value was 3, the “Dev. pointedLeaves” value is 1 and the “Dev. leafWidth” value is given as −1.
With `CSc1nnc(C(C)(C)C)c(=O)n1N` [Metribuzin], in test [1], the “Dev. tMic” value was found to be 1; the “Characteristic symptoms (phenotype)” value is “rapid and widespread leaf necrosis”; the “Dev. leafCurling” value was found to be 1; the “Dev. leafTwisting” value came out at 0. In test [1], the “Dev. matureLeafAnthocyanins” value amounted to 0, the “Dev. matureLeafChlorosis” value was found to be 2, the “Dev. matureLeafNecrosis” value is reported as 4 and the “Dev. newLeafAnthocyanins” value is recorded as 0. Also, in test [1], the “Dev. newLeafChlorosis” value was determined as 2, the “Dev. newLeafNecrosis” value was found to be 4, the “Dev. pointedLeaves” value worked out at 1 and the “Dev. leafWidth” value is −2.
In the case of `O=[N+]([O-])O` [Nitrate, nitrate], in test [3], the “Nitrate Regulation of Glutamate synthetase” value is “↑”, the “Nitrate Regulation of Glutamine synthetase (2)” value is reported as “↑”, the “Nitrate Regulation of MADs Box (2)” value is given as “↓” and the “Nitrate Regulation of MYB transcription factor” value is on record as “↑”. Besides, in test [3], the “Nitrate Regulation of Malate Dehydrogenase” value is given as “↑”, the “Nitrate Regulation of Nitrate transporter” value is reported as “↑”, the “Nitrate Regulation of Phosphate transporter” value was “↑” and the “Nitrate Regulation of Transaldolase” value is on record as “↑”. For the same compound, the “Nitrate Regulation of Transketolase” value in test [3] is recorded as “↑”.
On to `C[n+]1ccc(-c2cc[n+](C)cc2)cc1` [Paraquat], for which, in test [1], the “Dev. tMic” value was found to be 2; the “Characteristic symptoms (phenotype)” value is “rapid and widespread leaf necrosis”; the “Dev. leafCurling” value is given as 2; the “Dev. leafTwisting” value came to 0. In test [1], the “Dev. matureLeafAnthocyanins” value is 0, the “Dev. matureLeafChlorosis” value is recorded as 1, the “Dev. matureLeafNecrosis” value is on record as 4 and the “Dev. newLeafAnthocyanins” value is 0. Also, in test [1], the “Dev. newLeafChlorosis” value turned out to be 1, the “Dev. newLeafNecrosis” value was 4, the “Dev. pointedLeaves” value came out at 1 and the “Dev. leafWidth” value is −1. Besides, the “Symptom Class” value in test [1] turned out to be 7.
